Laboratory results published in US8993718B2, “Methods and compositions for detecting and modulating O-glycosylation” (President and Fellows of Harvard College, priority 2007, dated 2015).
Non-standard residues stand in square brackets, D forms with d. Primed or numbered codes have the meaning given here. No end group written: not given here. *: point of attachment. FITC = O=C1OC2(c3ccc(O)cc3Oc3cc(O)ccc32)c2ccc(NC(=S)*)cc21; Aha′ = not defined here

What was measured:
sOGT = molecular target: T1, sOGT (Homo sapiens, UniProt O15294); test: High-throughput kinetic protease-protection screen with polypeptide 4.10; format: biochemical; conditions: 25 μg/mL (~70 μM); hit = <70% activity in one duplicate and <80% in the second
T1 sequence (O15294 1-665 isoform O15294-4): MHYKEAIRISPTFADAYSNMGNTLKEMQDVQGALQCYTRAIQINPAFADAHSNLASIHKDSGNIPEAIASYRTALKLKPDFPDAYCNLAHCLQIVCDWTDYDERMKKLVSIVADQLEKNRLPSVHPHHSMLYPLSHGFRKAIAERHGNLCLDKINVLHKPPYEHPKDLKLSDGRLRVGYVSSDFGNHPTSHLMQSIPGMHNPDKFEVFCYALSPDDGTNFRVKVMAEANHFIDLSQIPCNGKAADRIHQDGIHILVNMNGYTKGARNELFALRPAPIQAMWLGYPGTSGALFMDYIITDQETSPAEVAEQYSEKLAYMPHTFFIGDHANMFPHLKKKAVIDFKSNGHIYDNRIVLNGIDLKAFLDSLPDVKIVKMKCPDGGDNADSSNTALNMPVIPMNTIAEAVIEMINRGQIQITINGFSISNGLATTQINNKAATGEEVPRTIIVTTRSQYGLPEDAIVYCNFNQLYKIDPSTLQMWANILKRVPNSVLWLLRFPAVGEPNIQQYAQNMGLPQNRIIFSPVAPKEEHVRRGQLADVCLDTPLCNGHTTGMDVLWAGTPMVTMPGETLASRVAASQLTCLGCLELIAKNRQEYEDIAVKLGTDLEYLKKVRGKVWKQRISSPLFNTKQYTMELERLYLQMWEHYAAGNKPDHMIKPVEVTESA
Text: With the final assay conditions established, 124,226 compounds were screened in duplicate at the ICCB (Harvard University, Boston, Mass.) over two days; the highest throughput of any assay performed at the ICCB screening facility. Small molecule libraries from several commercial vendors were screened as well as known bioactive compounds, natural product extracts, and molecules made using diversity oriented synthetic approaches. Included in this set were 52,026 of the 64,416 compounds screened using a donor displacement method such as that described in PCT application PCT/US2007/008806, which was filed Apr. 11, 2007. The vast majority compounds screened were small molecules (average MW ˜350) that were optimized to have favorable physico-chemical properties such as solubility, decreased toxicity, and increased stability. All of the commercial compounds at the ICCB are plated at a stock concentration of 5 mg/mL, which, given a 20 μL reaction volume, corresponds to a 25 μg/mL inhibitor concentration in each well. The format of most compound plates at the ICCB has the last two columns of each 384-well plate empty. This allowed each assay plate to have column of negative controls (run without inhibitor) and column of positive controls (run without sOGT), which allowed a Z′ to be calculated for each plate. These values typically ranged from 0.7-0.8.
Data workup began by calculating the average positive and negative control values independently for both duplicates of each plate. Using the linear relationship between percent glycosylation and fluorescence shown above (FIG. 7), the percent glycosylation was calculated for each well, with 0% corresponding to the average value of the positive controls and 100% corresponding to the average value of the negative controls. In actuality the range is roughly […] glycosylated polypeptide since the reaction was not allowed to proceed to completion. However, this simplification was employed to facilitate the comparison of different sets of plates. There were remarkably few compounds that reproducibly appeared to inhibit OGT, which enabled hits to be selected using a very high cutoff. Compounds with <70% activity in one duplicate and <80% activity in the second duplicate were scored as hits. Even using this lax criterion, the total unfiltered hit set only numbered 84, corresponding to a hit rate of 0.065%.
384-well plates (Costar #3710) were filled using a liquid handling robot with 10 μL of a mixture of 8 μM polypeptide 4.10, 40 μM UDP-GlcNAc, and buffer (50 mM Tris, 20 mM CaCl2, 0.05% Tween-20, 0.05% NP-40, pH=7.8, 500 μM tris(hydroxypropyl)phosphine). Compound libraries were then transferred to the assay plates using a 100 nL pin array and 10 μL of 500 nM sOGT in buffer (50 mM Tris, 20 mM CaCl2, 0.05% Tween-20, 0.05% NP-40, pH=7.8, 500 μM tris(hydroxypropyl)phosphine) was added using a liquid handling robot. The compounds were assayed at a concentration of 25 μg/mL or ˜70 μM, assuming an average compound MW of 350. After 2-3 hours, 20 μL of a 20 ng/mL proteinase K solution in buffer (50 mM Tris, 20 mM CaCl2, 0.05% Tween-20, 0.05% NP-40, pH=7.8) was added and allowed to react for 30-90 minutes. The plates were read using a Perkin-Elmer Envision® microplate reader with a 480 nm excitation filter and 530 nm emission filter.

[1] = molecular target: T2, O-Linked N-acetylglucosaminyltransferase (OGT) (Homo sapiens, UniProt O15294); test: Glycosylation of CK2-derived polypeptide substrates by OGT, quantified by LC/MS; format: biochemical; conditions: for Relative rate of glycosylation: OGT, LC/MS peak integration at 445 nm, relative to wt polypeptide 4.1
T2 sequence (O15294 1-1046): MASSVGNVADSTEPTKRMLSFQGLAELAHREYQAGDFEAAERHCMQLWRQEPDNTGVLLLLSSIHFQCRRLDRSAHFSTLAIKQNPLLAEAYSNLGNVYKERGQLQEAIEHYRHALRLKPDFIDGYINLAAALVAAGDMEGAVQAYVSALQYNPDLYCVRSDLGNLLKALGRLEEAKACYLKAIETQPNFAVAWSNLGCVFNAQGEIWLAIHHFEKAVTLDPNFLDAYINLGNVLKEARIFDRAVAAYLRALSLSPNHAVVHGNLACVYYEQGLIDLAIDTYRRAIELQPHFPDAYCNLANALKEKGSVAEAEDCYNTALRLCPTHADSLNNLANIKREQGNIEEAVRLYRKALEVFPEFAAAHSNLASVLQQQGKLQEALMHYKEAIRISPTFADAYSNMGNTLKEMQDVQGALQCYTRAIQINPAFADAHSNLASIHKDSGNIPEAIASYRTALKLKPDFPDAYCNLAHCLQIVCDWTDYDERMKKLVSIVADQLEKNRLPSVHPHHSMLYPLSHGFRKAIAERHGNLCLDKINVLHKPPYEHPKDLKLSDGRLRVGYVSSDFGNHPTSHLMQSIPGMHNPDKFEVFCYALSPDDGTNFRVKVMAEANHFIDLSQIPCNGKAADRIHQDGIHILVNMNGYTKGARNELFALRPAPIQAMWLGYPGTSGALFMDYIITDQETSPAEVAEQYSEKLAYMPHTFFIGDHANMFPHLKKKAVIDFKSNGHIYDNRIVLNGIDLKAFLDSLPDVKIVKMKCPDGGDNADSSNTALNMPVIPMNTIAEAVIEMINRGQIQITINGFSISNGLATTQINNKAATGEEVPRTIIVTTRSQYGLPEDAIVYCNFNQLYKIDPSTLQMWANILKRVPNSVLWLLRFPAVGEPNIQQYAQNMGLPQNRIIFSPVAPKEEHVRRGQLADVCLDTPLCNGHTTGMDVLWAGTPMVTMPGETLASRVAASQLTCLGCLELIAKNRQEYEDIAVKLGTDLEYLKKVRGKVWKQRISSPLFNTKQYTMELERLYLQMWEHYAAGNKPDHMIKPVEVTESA
Description: To address the first requirement, a panel of polypeptides was synthesized based on a truncated version of the CKII polypeptide [CKII peptide PGGSTPVSSNAMM (SEQ ID NO:20)]. The polypeptide was modified from the native sequence in several ways. First, a fluorescein was installed on the N-terminus during synthesis. Second, a lysine was added to the C-terminus so that a second dye or quencher could be installed by reaction with the appropriate N-hydroxysuccinimidyl ester. These modifications allowed two different FRET approaches. The first approach required the installation of a coumarin derivative on the polypeptide. The second required installation of a quencher molecule, which measured total fluorescence intensity. (See Examples 2 and 3). Finally, the residues on either side of the glycosylated serine of the truncated CK2 polypeptide were changed to phenylalanine, leucine or arginine to introduce proteolytic cleavage sites for common proteases (such as trypsin, chymotrypsin and thermolysin) that were not present in the native sequence. It was reasoned that cleavage adjacent to the glycosylation site would yield the largest difference in the rate of proteolysis between glycosylated and native polypeptides. This series of polypeptides was synthesized and screened for OGT activity using by LC/MS. Peak integration (measured at 445 nm) was used to quantitative products and reactants and mass spectrometry was used to confirm peak identity. The results are presented in Table 2 and some of the peptides (peptide 4.1, 4.4, and 4.5 top to bottom) are illustrated in FIG. 2.
All polypeptides were purchased from Tufts University core facility (Boston, Mass.). The mass of crude product was verified and the polypeptides were labeled under the following conditions: Polypeptide was dissolved in 250 mM NaHCO3 buffer, pH 8.2 at a 5 mM concentration and the appropriate NHS-Ester (0.5 eq) was dissolved in DMSO (a volume of 1/10 of the aqueous buffer was used). The DMSO solution was quickly added to the peptide and the reaction proceeded at room temperature for 30 minutes. This was repeated 2 more times (four more times for polypeptide 4.10). The reaction was monitored by LC/MS. LCMS conditions for polypeptides 4.1-4.8—Agilent Eclipse 5 μm XD8-C8 column, 0→100% CH3CN+0.1% formic acid over 20 minutes. LCMS conditions for polypeptides 4.9-4.10—Agilent Eclipse 5 μm XD8-C8 column, 0→100% CH3CN+0.1% NH4OH over 20 minutes. Each polypeptide was purified by preparative HPLC. Conditions for polypeptides 4.1-4.8 were: —Phenomonex Luna C18 5 μm column, 0→100% CH3CN+0.1% TFA over 40 minutes. Conditions for polypeptides 4.9-4.10 were: —Phenomonex Luna C18 5 μm column, 0→100% CH3CN+0.1% NH4OH over 40 minutes. Products were confirmed by LC/MS. Preparative Glycosylation of Labeled Polypeptides: Purified FRET labeled polypeptides were added (20-50 μM final concentration) to assay buffer (50 mM Tris, 20 mM CaCl2, 0.05% Tween-20, 0.05% NP-40, pH=7.8), 200 μM UDP-GlcNAc, 0.05 units of alkaline phosphatase, and 5 μM OGT. Reactions were monitored using LCMS: conditions for polypeptides 4.1-4.8—Agilent Eclipse 5 μm XD8-C8 column, 10→60% CH3CN+0.1% formic acid over 20 minutes. LCMS conditions for polypeptides 4.9-4.10—Agilent Eclipse 5 μm XD8-C8 column, 10→60% CH3CN+0.1% NH4OH over 20 minutes, and when complete were purified using the same column and conditions. Polypeptides 4.1-4.8 were quantitated by absorption at 492 nm using an extinction coefficient of 86,000 cm^−1M^−1; polypeptide 4.9 was quantitated by absorption at 530 nm using an extinction coefficient of 26,000 cm^−1M^−1; polypeptide 4.10 was quantitated by absorption at 530 nm using an extinction coefficient of 52,000 cm^−1M^−1. Fluorescence Resonance Energy Transfer (FRET)-Peptide Approach #1

hit in the high throughput screen (sOGT)	Compound	also measured
singleton hits	CCn1cc(C(=O)N2CCOCC2)c(=O)c2cc(S(=O)(=O)N(C)C)ccc21 [Compound 18]	–
singleton hits	Cc1cc(C)c2c(C(=O)O)cc(O)nc2c1 [Compound 6]	–
–	FITC(Aha)STPVSSANMK ({FITC}-[Aha′]STPVSSANMK; reading uncertain; also: printed as FITC(Aha)STPVSSANMK) [Polypeptide 4.1]	relative glycosylation rate ([1]; FIG. 2, natural (wild-type) sequence set as reference): 100%; Relative rate of glycosylation [1]: 1
–	FITC(Aha)STPVSRANMK(QXL ™ 520)R K(QXL ™ 520) ({FITC}-[Aha′]STPVSRANMK(QXL 520)RK(QXL 520); reading uncertain; also: printed as FITC(Aha)STPVSRANMK(QXL ™ 520)R K(QXL ™ 520)) [Polypeptide 4.10]	increase of glycosylation rate ([1]; more soluble variant vs earlier polypeptides): 2-3 fold
hits	COc1cccc(/N=C\c2c[nH]c3ccccc23)c1 [Compound 5]	–
singleton hits	O=C(O)[C@H](Cc1ccccc1)N1Cc2ccccc2C1=O [Compound 17]	–
singleton hits	Cl.Cl.N=C(N)c1cccc(NC(=O)Nc2cccc(C(=N)N)c2)c1 [Compound 10]	–
–	FITC(Aha)STPRSSANMK ({FITC}-[Aha′]STPRSSANMK; reading uncertain; also: printed as FITC(Aha)STPRSSANMK) [Polypeptide 4.3]	Relative rate of glycosylation [1]: 0
singleton hits	O=C1OCc2ccccc21 [Compound 16]	–
–	FITC(Aha)STPFSSANMK ({FITC}-[Aha′]STPFSSANMK; reading uncertain; also: printed as FITC(Aha)STPFSSANMK) [Polypeptide 4.2]	Relative rate of glycosylation [1]: 0.15
–	FITC(Aha)STPVSRANMK ({FITC}-[Aha′]STPVSRANMK; reading uncertain; also: printed as FITC(Aha)STPVSRANMK) [Polypeptide 4.5]	Relative rate of glycosylation [1]: 0.7
singleton hits	Clc1cccc(C(c2nnc(-c3ccccc3)o2)N2CCN(c3ccccc3)CC2)c1 (centres unmarked) [Compound 15]	–
singleton hits	O=C(/C=C/c1cccs1)Nc1scc(-c2ccccc2)c1C(=O)O [Compound 2]	–
hits	CSC(SC)=C(C#N)S(=O)(=O)c1ccc(Cl)cc1 [Compound 3]	–

Compound	hit in the high throughput screen (sOGT)	also measured
N#CSc1cc(SC#N)c(N)nc1N [Compound 4]	hits	–
Fc1ccc(NC2=NCCN2)cc1 [Compound 21]	singleton hits	–
